This note sets out measurements from patent publication US12543736B2, “Herbicidal compositions comprising mesotrione” (BASF SE, priority 2024, dated 2026).

One experiment deals with Setaria verticillata. Briefly: Example 3 post-emergence field trial, SETVE. Type of experiment: in vivo. The settings on record: height 8-16 cm; for % herbicidal activity A-1 / % herbicidal activity B: 42 DAT; for % herbicidal activity: g ai/ha: A-1 18, B 105. The procedure:
In the examples below, using the method of S. R. Colby (1967) “Calculating synergistic and antagonistic responses of herbicide combinations”, Weeds 15, p. 22ff., the value E, which is expected if the activity of the individual active compounds is only additive, was calculated: [formula] • where • X=percent activity using active herbicide A at an application rate a; • Y=percent activity using active herbicide B (e.g. mesotrione) at an application rate b; • E=expected activity (in %) by A+B at application rates a+b. If the value found experimentally is higher than the value E calculated according to Colby, a synergistic effect is present. Evaluation was carried out using a scale from 0 to 100. 100 means no emergence of the plants, or complete destruction of at least the above-ground parts, and 0 means no damage or normal course of growth. A good herbicidal activity is given at values of at least 70, and very good herbicidal activity is given at values of at least 85. Post-Emergence Application of Herbicide A-1 (A-1) and Mesotrione (B) in Field Trials Herbicide A-1 (342 g/l) and mesotrione (100 g/l) were, together with addition of 0.5 v/v % MSO (methylated sed oil) as adjuvant, formulated in water as distribution medium (water volume 200 l/ha) and sprayed with commercial flat fan nozzles.

In a further experiment the test system is Zea mays. Briefly: Example 4 post-emergence application A-1, B and C-19, ZEAMX. Type of experiment: in vivo. The settings on record: growth stage 12, 21 DAT, g ai/ha: A-1 2, B 50, C-19 30. The procedure: In the examples below, using the method of S. R. Colby (1967) “Calculating synergistic and antagonistic responses of herbicide combinations”, Weeds 15, p. 22ff., the value E, which is expected if the activity of the individual active compounds is only additive, was calculated:
[formula] • where • X=percent activity using active herbicide A at an application rate a; • Y=percent activity using active herbicide B (e.g. mesotrione) at an application rate b; • E=expected activity (in %) by A+B at application rates a+b.
If the value found experimentally is higher than the value E calculated according to Colby, a synergistic effect is present.
Evaluation was carried out using a scale from 0 to 100. 100 means no emergence of the plants, or complete destruction of at least the above-ground parts, and 0 means no damage or normal course of growth. A good herbicidal activity is given at values of at least 70, and very good herbicidal activity is given at values of at least 85.
Post-Emergence Application of Herbicide A-1 (A-1), Mesotrione (B) and Pyroxasulfone (C-19)
Herbicide A-1 (342 g/l), mesotrione (100 g/l) and pyroxasulfone (500 g/l) were, together with addition of 0.5 v/v % MSO (methylated sed oil) as adjuvant, formulated in water as distribution medium (water volume 200 l/ha) and sprayed with commercial flat fan nozzles.

Consider `CCOC(=O)COc1ccccc1Oc1nc(-n2c(=O)cc(C(F)(F)F)n(C)c2=O)c(F)cc1Cl` [A-1, ethyl 2-[2-[[3-chloro-5-fluoro-6-[3-methyl-2,6-dioxo-4-(trifluoromethyl)pyrimidin-1-yl]-2-pyridyl]oxy]phenoxy]acetate], for which the “% herbicidal activity A-1” value with Setaria verticillata (A-1 12.5 g ai/ha (row with B 105)) amounted to 60%; in the experiment on Setaria verticillata (A-1 12.5 g ai/ha (row with B 210)), 50%. The “% herbicidal activity” value is 80% in the experiment with Setaria verticillata (7 DAT), 75% with Setaria verticillata (21 DAT) and 40% with Zea mays.

Take `CS(=O)(=O)c1ccc(C(=O)C2C(=O)CCCC2=O)c([N+](=O)[O-])c1` [B, mesotrione]: the “% herbicidal activity B” value was found to be 30% in the experiment with Setaria verticillata (B 105 g ai/ha) and 20% in the experiment on Setaria verticillata (B 210 g ai/ha). The figures for the “% herbicidal activity” value in the experiment with Setaria verticillata (7 DAT), in the experiment with Setaria verticillata (21 DAT) and with Zea mays were 50%, 35% and 0%, respectively.
